# PMC5469750, “Antibacterial and detoxifying activity of NZ17074 analogues with multi-layers of selective antimicrobial actions against Escherichia coli and Salmonella enteritidis” (Scientific Reports, 2017)
# Columns and labels:
# E. coli CVCC1515 = experiment: E. coli-induced peritonitis model, survival; assay type: in vivo, ICR mice; conditions: 7 days, six mice per group
# Experimental: (§1) Mice injected with only bacteria or saline served as negative (untreated) or blank (unchallenged) controls, respectively. Survival of mice was recorded every 12 h and followed for 7 days.
# S. enteritidis CICC22956 = experiment: S. enteritidis-induced peritonitis model, survival; assay type: in vivo, ICR mice; conditions: 7 days, six mice per group
# Experimental: as §1
# IL-6 = experiment: LPS-induced cytokine release, serum ELISA; assay type: in vivo, C57BL/6 mice; conditions: 15 mg/kg intraperitoneal 0.5 h after 10 mg/kg LPS; LPS control 1026.8; mean, n = 3 per group
# Experimental: (§2) Blood was collected in a heparin sodium tube at 2 h or 8 h after LPS injection and incubated for 30 min at 37 °C and then overnight at 4 °C. After centrifugation at 3,000 rpm for 10 min at 4 °C, serum was collected from supernatant. The cytokine levels of TNF-α, IL-6 and IL-1β were detected by the Jiaxuan Biotech. Co. Ltd. (Beijing, China) using an enzyme linked immunosorbent assay (ELISA).
# TNF-α = experiment: LPS-induced cytokine release, serum ELISA; assay type: in vivo, C57BL/6 mice; conditions: 15 mg/kg intraperitoneal 0.5 h after 10 mg/kg LPS; LPS control 394.9; mean, n = 3 per group
# Experimental: as §2
# IL-1β = experiment: LPS-induced cytokine release, serum ELISA; assay type: in vivo, C57BL/6 mice; conditions: 15 mg/kg intraperitoneal 0.5 h after 10 mg/kg LPS; LPS control 292.9; mean, n = 3 per group
# Experimental: as §2
# [1] = LPS binding, BODIPY-TR-cadaverine (BC) displacement; conditions: 100 μM; 40 μg/ml LPS and 10 μM BC in 50 mM Tris buffer pH 7.4, 1 h, room temperature
# Experimental: Equal volumes of 40 μg/ml LPS and 10 μM BC in 50 mM Tris buffer (pH 7.4) were mixed, added into 96-well plates and incubated in the dark for 4 h at room temperature. […] Fluorescence was then measured using a microplate reader (excitation/emission, 580/620 nm). The occupancy rate was calculated by the following equation: BC displacement rate (%) = (1 − (F0 − F)/(F0 − Fmax)) × 100, wherein F0 is the fluorescence intensity of the solution of BC alone; Fmax is the fluorescence intensity in the presence of LPS at the saturation concentration, and F is the intensity of LPS:BC mixtures at varying displacer concentrations.
# [2] = Calcein leakage from model eukaryotic membranes; assay type: biochemical; conditions: POPC/cholesterol = 1:1 LUVs (500 μM lipid), 64 to 256 μg/ml, 5 min; 100% = 1% Triton X-100; n = 3
# Experimental: Different lipids (Avanti Polar Linpids, Inc.) were used to prepare model membranes composed of POPC/ POPG (4:1 molar ratio) and POPC/cholesterol (1:1) by the extrusion method as previously described. POPC/POPG and POPC/cholesterol LUVs were used to mimic gram-negative bacterial and eukaryotic membranes, respectively. […] After incubation for 5 min, the fluorescence (F) (λexcitation = 492 nm, λemission = 518 nm) was measured on a microplate reader.
# E. coli 0111:B4 LPS = experiment: LPS-induced endotoxemia model, survival; assay type: in vivo, C57BL/6 mice; conditions: 7 days, six mice per group
# Experimental: Eight-week-old SPF male C57BL/6 mice (20 g ± 5 g, six mice per group) were injected intraperitoneally with E. coli 0111:B4 LPS (30 mg/kg body weight, Sigma). […] Mice injected with PBS were used as the negative control. The mouse survival rate was recorded for 7 days.
substance,measurement,setting,value
polymyxin B [PMB],survival rate,E. coli CVCC1515; 0.31 mg/kg intraperitoneal at 0.5 and 8 h after inoculation,66.7%
same,survival rate,E. coli CVCC1515; 0.625 mg/kg intraperitoneal at 0.5 and 8 h after inoculation,100%
same,survival rate,S. enteritidis CICC22956; 0.31 mg/kg intraperitoneal at 0.5 h and 8 h after challenge,83.3%
same,survival rate,S. enteritidis CICC22956; 0.625 mg/kg intraperitoneal at 0.5 h and 8 h after challenge,100%
same,serum level of IL-6,IL-6,514.9 pg/mL
same,serum level of TNF-α,TNF-α,74.0 pg/mL
same,serum level of IL-1β,IL-1β,242.8 pg/mL
same,BC displacement percentage,[1],89.3%
same,calcein dye leakage,[2],12.3–51.0%
same,survival rate,E. coli 0111:B4 LPS; 10 mg/kg intraperitoneal at 0.5 h and 8 h after LPS (30 mg/kg),16.7%
same,survival rate,E. coli 0111:B4 LPS; 15 mg/kg intraperitoneal at 0.5 h and 8 h after LPS (30 mg/kg),100%
